In brackets after ≈: the same amount, converted by molar mass.
Key:
[1] = test system: human breast cancer MCF-7; assay: Growth inhibition of human breast cancer MCF-7 xenografted in nude mice; format: in vivo, BALB/c female nude mice; conditions: oiling agent, 100 mg/kg s.c. once, 28 days after administration; for Tumor weight: X ± SD; for Tumor inhibition rate: from tumor weight vs control
From the text: Test drugs: fulvestrant, Compounds II and X are dispersed in oil and sterilized to be prepared as oiling agents respectively.

physchem = conditions: thermodynamic from solid
From the text: (§1) Fulvestrant and ester derivatives of fulvestrant were accurately weighed to an appropriate amount respectively. Their solubilities (in mg/mL) in different oils and solvents were compared according to General Notice in Section 2 of Chinese Pharmacopoeia (2010).

[2] = cited from earlier work
[3] = Body weight of MCF-7 xenografted nude mice; conditions: oiling agent, 100 mg/kg s.c. once, 28 days after administration, X ± SD
Method: Experimental animals and grouping thereof, source, germline and strain: BALB/c female nude mice, provided by Laboratory Animal Research Center of Academy of Military Medical Sciences of China (Laboratory animal production license: SCXK (Military) 2007-004), day-old: 35-40 days; body weight: 18-24 g.
Establishment of model and tumor measuring method: human breast cancer MCF-7 cell lines in logarithmic growth phase were prepared into a cell suspension of 5×10^8/mL under sterile condition, with 0.1 mL of which being inoculated to nude mice at their right armpits subcutaneously. Xenografted tumors of nude mice were measured for diameter with vernier caliper, and animals were randomly grouped when the tumors grew to 100-300 mm^3. The administration volume to each of the mice was 0.2 mL/20 g by subcutaneous injection at head and neck region. 28 days after administration, the mice were sacrificed and the tumors were stripped by surgery and weighed.

[4] = Solubility experiments of fulvestrant and ester derivatives in different oils and solvents; conditions: thermodynamic from solid
From the text: as §1

[5] = oil or lipid, Solubility in soybean oil
[6] = organic solvent or mixture, Solubility in propylene glycol

Compound `CCCCCCCCCCCCCCCC(=O)OC1CCC2C3C(CCCCCCCCC[S+]([O-])CCCC(F)(F)C(F)(F)F)Cc4cc(O)ccc4C3CCC12C` (centres unmarked) [Compound II] has a Tumor weight [1] of 0.426 ± 0.306 g, a Tumor inhibition rate [1] of 64.90% and a solubility (physchem; oil or lipid, Solubility in castor oil) greater than 100000 µg/mL. It also gave a solubility (physchem; oil or lipid, Solubility in medium-chain oil) greater than 10000 µg/mL, a solubility (physchem; [5]) greater than 100000 µg/mL and a solubility (physchem; organic solvent or mixture, Solubility in PEG 400) of 2900 µg/mL (≈ 3.43 mM). The solubility (physchem; [6]) was 10200 µg/mL (≈ 12.1 mM).
With `CC(CCC(C(=O)OC1CCC2C3C(CCCCCCCCC[S+]([O-])CCCC(F)(F)C(F)(F)F)Cc4cc(O)ccc4C3CCC12C)C(C)CC(C)(C)C)CC(C)(C)C` (centres unmarked) [Compound IV] the solubility (physchem; [5]) was 28000 µg/mL (≈ 32.1 mM) and the solubility (physchem; [6]) was 7100 µg/mL (≈ 8.13 mM).
With `CCCCCCCCCCC(=O)OC1CCC2C3C(CCCCCCCCC[S+]([O-])CCCC(F)(F)C(F)(F)F)Cc4cc(O)ccc4C3CCC12C` (centres unmarked) [Compound I] the solubility (physchem; [5]) was 255000 µg/mL (≈ 329 mM) and the solubility (physchem; [6]) was 2900 µg/mL (≈ 3.74 mM).
For `CCCCCCCC/C=C/C(=O)OC1CCC2C3C(CCCCCCCCC[S+]([O-])CCCC(F)(F)C(F)(F)F)Cc4cc(O)ccc4C3CCC12C` (centres unmarked) [Compound V], the solubility (physchem; [5]) was 122000 µg/mL (≈ 158 mM) and the solubility (physchem; [6]) was 12200 µg/mL (≈ 15.8 mM).
`CCCCCCCC/C=C/C(=O)OC1CCC2C3C(CCCCCCCCC[S+]([O-])CCCC(F)(F)C(F)(F)F)Cc4cc(OC(=O)CCC)ccc4C3CCC12C` (centres unmarked) [Compound X] showed a Tumor weight [1] of 0.402 ± 0.711 g and a Tumor inhibition rate [1] of 65.93%.
For `CC12CCC3c4ccc(O)cc4CC(CCCCCCCCC[S+]([O-])CCCC(F)(F)C(F)(F)F)C3C1CCC2O` (stereo not drawn) [Fulvestrant, 7-α-[9-(4,4,5,5,5-pentafluoropentylsulfinyl)nonyl]-estra-1,3,5(10)-triene-3,17β-diol], the Tumor weight [1] is given as 0.392 ± 0.443 g, the Tumor inhibition rate [1] is given as 66.78% and the “Solubility in Migloyl 810” value ([2]; Migloyl 810, 25° C.) is given as 3060 µg/mL (≈ 5.04 mM). The “Solubility in Migloyl 812” value ([2]; Migloyl 812, 25° C.) was 2720 µg/mL (≈ 4.48 mM), the “Solubility in Span 85” value ([2]; Span 85, 25° C.) was 3790 µg/mL (≈ 6.25 mM) and the “Solubility in benzyl alcohol” value ([2]; benzyl alcohol, 25° C.) was greater than 200000 µg/mL. The “Solubility in benzyl benzoate” value ([2]; benzyl benzoate, 25° C.) was 6150 µg/mL (≈ 10.1 mM), the “Solubility in castor oil” value ([2]; castor oil, 25° C.) was 20000 µg/mL (≈ 33 mM) and the “Solubility in castor oil (reported value)” value ([2]; castor oil, * denotes reported value) was 20* mg/mL. For the same compound, the Solubility in ethanol ([2]; ethanol, 25° C.) was greater than 200000 µg/mL, the “Solubility in ethyl oleate” value ([2]; ethyl oleate, 25° C.) was 1250 µg/mL (≈ 2.06 mM) and the “Solubility in isopropyl myristate” value ([2]; isopropyl myristate, 25° C.) was 800 µg/mL (≈ 1.32 mM). The “Solubility in peanut oil” value ([2]; peanut oil, 25° C.) was 450 µg/mL (≈ 0.742 mM), the “Solubility in sesame oil” value ([2]; sesame oil, 25° C.) was 580 µg/mL (≈ 0.956 mM) and the Solubility in water ([2]; water, 25° C.) was 1 µg/mL (≈ 0.00165 mM). The Water solubility ([2]; water) was “about 10 ng/mL”, the Final body weight [3] was 15.800 ± 1.166 g and the solubility ([4]; PEG 400, organic solvent or mixture, Solubility in PEG 400, PEG 400) was 6900 µg/mL (≈ 11.4 mM). The solubility ([4]; propylene glycol, organic solvent or mixture, Solubility in propylene glycol) was 10200 µg/mL (≈ 16.8 mM) and the solubility ([4]; soybean oil, oil or lipid, Solubility in soybean oil) was 5000 µg/mL (≈ 8.24 mM).

From patent US20160060288A1, “Ester derivatives of 7-alpha-[9-(4,4,5,5,5-pentafluoropentylsulfinyl)nonyl)-estra-1,3,5(10)-triene-3,17beta-diol having anticancer activity and preparation method thereof” (XI'ANLIBANG PHARMACEUTICAL TECHNOLOGY CO., LTD., priority 2013, published 2016)
